Where a name gives a salt, the structure may show the parent alone.

In one data set the test system is Hepatotoxicity. The data set can be described thus: Human drug-induced liver injury (DILI) modelling dataset from Ekins et al.
Settings: not given
Turning to `CCOc1nc2cccc(C(=O)O)c2n1Cc1ccc(-c2ccccc2-c2nnn[nH]2)cc1`, the Hepatotoxicity entry is “DILI negative (test set)”.
Turning to `CCCc1nc2c(C)cc(-c3nc4ccccc4n3C)cc2n1Cc1ccc(-c2ccccc2C(=O)O)cc1`, the Hepatotoxicity result is listed as “DILI negative (training set)”.
As for `CCCCC(=O)N(Cc1ccc(-c2ccccc2-c2nnn[nH]2)cc1)[C@H](C(=O)O)C(C)C`, the Hepatotoxicity entry was “DILI negative (test set)”.
The same measure, in the same setting: the entry for `CC(C)(C)NCC(O)c1cc(O)cc(O)c1.O=S(=O)(O)O` (stereo unspecified) is “DILI positive (test set)”.
With `COc1cccc(OC)c1C(=O)N[C@@H]1C(=O)N2[C@@H]1SC(C)(C)[C@@H]2C(=O)[O-].[Na+]`, the Hepatotoxicity result is on record as “DILI positive (training set)”.
Regarding `CN[C@@H]1[C@H](O)[C@H](NC)[C@H]2O[C@@]3(O)C(=O)C[C@@H](C)O[C@H]3O[C@@H]2[C@H]1O.Cl`, the Hepatotoxicity entry is reported as “DILI positive (test set)”.
Regarding `CCO.C[C@H]1c2cccc(O)c2C(=O)C2=C(O)[C@]3(O)C(=O)C(C(N)=O)=C(O)[C@@H](N(C)C)[C@@H]3[C@@H](O)[C@@H]21.Cl.O`, the Hepatotoxicity result is recorded as “DILI positive (training set)”.
For `CCN(CC)CCNC(=O)c1cc(Cl)c(N)cc1OC.Cl`, the Hepatotoxicity entry is on record as “DILI positive (training set)”.
On the same count and under the same terms, for `CNS(=O)(=O)Cc1ccc2[nH]cc(CCN(C)C)c2c1` the value was “DILI negative (training set)”; for `CN(C)CCN(Cc1cccs1)c1ccccn1`, “DILI positive (test set)”.
With `CCCCCOC(=O)c1ccccc1C(=O)OCCCCC`, the Hepatotoxicity entry was “DILI positive (test set)”.
As for `CC1=C(CC(=O)O)c2cc(F)ccc2/C1=C\c1ccc([S+](C)[O-])cc1` (stereo unspecified), the Hepatotoxicity entry is recorded as “DILI positive (training set)”.
For `CCOC(=O)[C@H](CCc1ccccc1)N[C@@H](C)C(=O)N1Cc2ccccc2C[C@H]1C(=O)O`, the Hepatotoxicity result is “DILI positive (training set)”.
Consider `S=C=Nc1ccc2ccccc2c1`, for which the Hepatotoxicity result is “DILI negative (test set)”.
For `CO/N=C(/C(=O)N[C@@H]1C(=O)N2C(C(=O)[O-])=C(CSc3nc(=O)c(O)nn3C)CS[C@H]12)c1csc(N)n1.[Na+]`, the Hepatotoxicity result is listed as “DILI positive (test set)”.
Take `O=C1NC(=O)C(O)(O)C(=O)N1`: the Hepatotoxicity entry is listed as “DILI negative (training set)”.
Still for that read-out and setting: for `Oc1ccccc1Br` the value was “DILI positive (test set)”; for `O=C(O)COc1ccc(C(=O)c2cccs2)c(Cl)c1Cl`, “DILI positive (test set)”.
As for `O=C1NCN(c2ccccc2)C12CCN(CCCC(c1ccc(F)cc1)c1ccc(F)cc1)CC2`, the Hepatotoxicity result is listed as “DILI positive (test set)”.
As for `C[n+]1ccc(-c2cc[n+](C)cc2)cc1`, the Hepatotoxicity entry is “DILI positive (test set)”.
`Nc1ccc(Cc2ccc(N)cc2)cc1`: the Hepatotoxicity entry is “DILI positive (test set)”.
Still for that read-out and setting: the entry for `C=C1CC[C@@]2(O)[C@H]3Cc4ccc(O)c5c4[C@@]2(CCN3CC2CC2)[C@H]1O5` is “DILI negative (training set)”; for `ClCCCl` [1,2-DICHLOROETHANE] it is “DILI positive (test set)”.
For the molecule `Clc1ccc(Cl)cc1` [1,4-DICHLOROBENZENE], the Hepatotoxicity result is “DILI positive (test set)”.
With `FCCCCCF` [1,5-DIFLUOROPENTANE], the Hepatotoxicity result is “DILI positive (test set)”.
In the case of `S=C=Nc1cccc2ccccc12` [1-NAPHTHYLISOTHIOCYANATE], the Hepatotoxicity entry was “DILI positive (test set)”.
Same read-out and setting: the entry for `O=[N+]([O-])c1ccc(O)c([N+](=O)[O-])c1` [2,4-DINITROPHENOL] is “DILI positive (test set)”.
For `Nc1ccc(O)cc1` [4-AMINOPHENOL], the Hepatotoxicity entry is listed as “DILI negative (test set)”.
On to `Nc1nc(NC2CC2)c2ncn([C@H]3C=C[C@@H](CO)C3)c2n1` [ABACAVIR], for which the Hepatotoxicity result was “DILI positive (test set)”.
As for `CC(=O)CC(c1ccc([N+](=O)[O-])cc1)c1c(O)c2ccccc2oc1=O` (stereo unspecified) [ACENOCOUMAROL], the Hepatotoxicity result was “DILI positive (test set)”.
Regarding `CC(=O)Nc1ccc(O)cc1` [ACETAMINOPHEN], the Hepatotoxicity entry is “DILI positive (training set)”.
Consider `CC(=O)Nc1nnc(S(N)(=O)=O)s1` [ACETAZOLAMIDE], for which the Hepatotoxicity entry was “DILI positive (training set)”.
Consider `CC(=O)c1ccc(S(=O)(=O)NC(=O)NC2CCCCC2)cc1` [ACETOHEXAMIDE], for which the Hepatotoxicity result is reported as “DILI positive (training set)”.
In the case of `CC(=O)N[C@@H](CS)C(=O)O` [ACETYLCYSTEINE], the Hepatotoxicity entry is listed as “DILI negative (test set)”.
The same measure, in the same setting: the entry for `COc1cc(C)c(/C=C/C(C)=C/C=C/C(C)=C/C(=O)O)c(C)c1C` [ACITRETIN] is “DILI positive (training set)”; for `N[C@H](C(=O)O)[C@@H]1CC(Cl)=NO1` [ACIVICIN] it is “DILI negative (training set)”.
For the molecule `CC[C@@]1(O)C[C@H](O[C@H]2C[C@H](N(C)C)[C@H](O[C@H]3C[C@H](O)[C@H](O[C@H]4CCC(=O)[C@H](C)O4)[C@H](C)O3)[C@H](C)O2)c2c(cc3c(c2O)C(=O)c2c(O)cccc2C3=O)[C@H]1C(=O)OC.Cl` [ACLARUBICIN HYDROCHLORIDE], the Hepatotoxicity result is recorded as “DILI negative (test set)”.
Turning to `Nc1ncnc2c1ncn2[C@@H]1O[C@H](CO)[C@@H](O)[C@H]1O` [ADENOSINE], the Hepatotoxicity result is recorded as “DILI negative (training set)”.
The same measure, in the same setting: the entry for `COc1cc2c(c3oc(=O)c4c(c13)CCC4=O)[C@@H]1C=CO[C@@H]1O2` [AFLATOXIN] is “DILI positive (test set)”; for `CCCSc1ccc2nc(NC(=O)OC)[nH]c2c1` [ALBENDAZOLE] it is “DILI positive (training set)”; for `Oc1ncnc2[nH]ncc12` [ALLOPURINOL] it is “DILI positive (training set)”.
For `C=CCO` [ALLYL ALCOHOL], the Hepatotoxicity entry is “DILI positive (test set)”.
In the case of `C=CCOC=O` [ALLYL FORMATE], the Hepatotoxicity entry is given as “DILI positive (test set)”.
With `CCCN(CCC)C(=O)Cc1c(-c2ccc(Cl)cc2)nc2ccc(Cl)cn12` [ALPIDEM], the Hepatotoxicity entry was “DILI positive (test set)”.
As to `Cl.NC12CC3CC(CC(C3)C1)C2` [AMANTADINE HYDROCHLORIDE], the Hepatotoxicity result is “DILI negative (training set)”.
On to `Cl.N=C(N)NC(=O)c1nc(Cl)c(N)nc1N.O.O` [AMILORIDE HYDROCHLORIDE], for which the Hepatotoxicity result is reported as “DILI negative (training set)”.
With `Cl.O=C(O)CCCCCCNC1c2ccccc2CCc2ccccc21` [AMINEPTINE HYDROCHLORIDE], the Hepatotoxicity result is “DILI positive (test set)”.
As for `Nc1ccc(C(=O)[O-])cc1.[K+]` [AMINOBENZOATE POTASSIUM], the Hepatotoxicity result is recorded as “DILI negative (training set)”.
As to `NCCCCCC(=O)O` [AMINOCAPROIC ACID], the Hepatotoxicity entry is “DILI negative (test set)”.
Turning to `CCC1(c2ccc(N)cc2)CCC(=O)NC1=O` (stereo unspecified) [AMINOGLUTETHIMIDE], the Hepatotoxicity entry is reported as “DILI negative (training set)”.
On the same count and under the same terms, the entry for `Nc1ccc(C(=O)O)c(O)c1` [AMINOSALICYLIC ACID] is “DILI positive (training set)”; for `CN(C)CCC=C1c2ccccc2CCc2ccccc21.Cl` [AMITRIPTYLINE HYDROCHLORIDE] it is “DILI negative (training set)”; for `Cl.N` [AMMONIUM CHLORIDE] it is “DILI negative (training set)”.
Same read-out and setting: the entry for `Clc1ccc2c(c1)C(N1CCNCC1)=Nc1ccccc1O2` [AMOXAPINE] is “DILI negative (training set)”; for `CC1(C)S[C@@H]2[C@H](NC(=O)[C@H](N)c3ccc(O)cc3)C(=O)N2[C@H]1C(=O)O` [AMOXICILLIN] it is “DILI negative (test set)”.
For the molecule `C[C@@H]1[C@H](O)[C@@H](C)/C=C/C=C/C=C/C=C/C=C/C=C/C=C/[C@H](O[C@@H]2O[C@H](C)[C@@H](O)[C@H](N)[C@@H]2O)C[C@@H]2O[C@](O)(C[C@@H](O)C[C@@H](O)[C@H](O)CC[C@@H](O)C[C@@H](O)CC(=O)O[C@H]1C)C[C@H](O)[C@H]2C(=O)O` [AMPHOTERICIN B], the Hepatotoxicity result is on record as “DILI negative (test set)”.
The same measure, in the same setting: for `CC1(C)S[C@@H]2[C@H](NC(=O)[C@H](N)c3ccccc3)C(=O)N2[C@H]1C(=O)[O-].[Na+]` [AMPICILLIN SODIUM] the value was “DILI negative (test set)”; for `COc1cc(NS(C)(=O)=O)ccc1Nc1c2ccccc2nc2ccccc12.Cl` [AMSACRINE HYDROCHLORIDE], “DILI positive (training set)”; for `CCOC(=O)C1(c2ccccc2)CCN(CCc2ccc(N)cc2)CC1.Cl` [ANILERIDINE HYDROCHLORIDE], “DILI negative (test set)”.
Still for that read-out and setting: for `N=C(N)NCCC[C@H](N)C(=O)O` [ARGININE] the value was “DILI negative (training set)”.
As for `O=[As][As+](=O)[O-]` (stereo unspecified) [ARSENIC TRIOXIDE], the Hepatotoxicity entry was “DILI positive (test set)”.
As to `O=C1O[C@H]([C@@H](O)CO)C(O)=C1O` [ASCORBIC ACID], the Hepatotoxicity result is recorded as “DILI negative (training set)”.
In the case of `CC(=O)Oc1ccccc1C(=O)O` [ASPIRIN], the Hepatotoxicity entry is “DILI negative (training set)”.
Turning to `COc1ccc(CCN2CCC(Nc3nc4ccccc4n3Cc3ccc(F)cc3)CC2)cc1` [ASTEMIZOLE], the Hepatotoxicity entry is on record as “DILI negative (training set)”.
On to `CNCC[C@@H](Oc1ccccc1C)c1ccccc1` [ATOMOXETINE], for which the Hepatotoxicity entry was “DILI positive (test set)”.

Staying with this data set, now noted: Liver.
`Cl.NCCNCCNCCN`: the Hepatotoxicity result is “DILI positive (test set)”.
Take `CCN(CC)Cc1cc(Nc2ccnc3cc(Cl)ccc23)ccc1O.Cl.Cl.Cl`: the Hepatotoxicity result is “DILI positive (test set)”.
For `N#CC(C#N)=NNc1ccc(OC(F)(F)F)cc1`, the Hepatotoxicity result is “DILI positive (training set)”.
With `CC(=O)OCC[N+](C)(C)C.[Cl-]` [ACETYLCHOLINE CHLORIDE], the Hepatotoxicity result is given as “DILI negative (training set)”.
As for `CCCCc1oc2ccccc2c1C(=O)c1cc(I)c(OCCN(CC)CC)c(I)c1` [AMIODARONE], the Hepatotoxicity entry was “DILI positive (training set)”.
Turning to `CC(C)NCC(O)COc1ccc(CC(N)=O)cc1` (stereo unspecified) [ATENOLOL], the Hepatotoxicity result is listed as “DILI negative (training set)”.

The record behind these values is ChEMBL document CHEMBL1697723, “A predictive ligand-based Bayesian model for human drug-induced liver injury” (Drug Metab Dispos, 2010).
